Literature values as cited in US12213954B2, “Colchicine solution” (PHARMA-DATA RESEARCH AND D[…] MEMBER S.A., priority 2021, dated 2025).

Conditions: pure colchicine

COc1cc2c(c(OC)c1OC)-c1ccc(OC)c(=O)cc1[C@@H](NC(C)=O)CC2 [colchicine, (S)—N-(5,6,7,9-tetrahydro-1,2,3,10-tetramethoxy-9-oxo-benzo[a]heptalene-7-yl)acetamide]
solubility in water, ethanol and chloroform (in words): well soluble
